# Measured values from patent US11622970B2, “BCL-2 inhibitors and their use as pharmaceuticals” (PRELUDE THERAPEUTICS INCORPORATED, priority 2020, dated 2023).
# Target: BCL-2 recombinant protein (Homo sapiens, UniProt P10415)
# Test: Cell free Bcl-2:Bak affinity assay (Bcl-2 Bak), HTRF competition of FAM-Bak peptide
# Format: binding
# Conditions: 1 μM compound, 4 nM BCL-2 recombinant protein, 100 nM FAM-Bak, read-out: potency (% inhibition at 1 μM)
# Outline: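 Compounds in 10-point 3-fold dilution preincubated 10 min at RT with 4 nM GST-BCL-2 (20 mM K phosphate pH 7.5, 50 mM NaCl, 1 mM EDTA, 0.005% Triton X-100), then 100 nM FAM-Bak 10 min, anti-GST-Tb added, 60 min RT dark. HTRF read; % inhibition vs DMSO and positive control, IC50 from curve fit.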
# Sequence of BCL-2 recombinant protein (P10415 whole entry): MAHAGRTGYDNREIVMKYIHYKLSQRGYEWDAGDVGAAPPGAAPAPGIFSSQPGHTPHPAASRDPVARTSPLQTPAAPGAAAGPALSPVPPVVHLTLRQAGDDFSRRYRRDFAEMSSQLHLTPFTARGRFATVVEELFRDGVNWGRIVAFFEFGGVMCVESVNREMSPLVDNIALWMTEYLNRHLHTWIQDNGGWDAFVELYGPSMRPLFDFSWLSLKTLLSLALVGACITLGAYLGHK
row,inhibition at 1 µM [%],SMILES
1,50 to 90,"COc1cc(-c2nc(C(=O)NS(=O)(=O)c3ccc(N4CCN(CC5=C(c6ccc(Cl)cc6)CC(C)(C)CC5)CC4)cc3)ccc2F)ccn1 [Example 55, N-[4-[4-[[2-(4-Chlorophenyl)-4,4-dimethylcyclohexen-1-yl]methyl]piperazin-1-yl]phenyl]sulfonyl-5-fluoro-6-(2-methoxypyridin-4-yl)pyridine-2-carboxamide]"
2,50 to 90,"COc1ncc(-c2nc(C(=O)NS(=O)(=O)c3ccc(N4CCN(CC5=C(c6ccc(Cl)cc6)CC(C)(C)CC5)CC4)cc3)ccc2F)cn1 [Example 57, N-[4-[4-[[2-(4-Chlorophenyl)-4,4-dimethylcyclohexen-1-yl]methyl]piperazin-1-yl]phenyl]sulfonyl-5-fluoro-6-(2-methoxypyrimidin-5-yl)pyridine-2-carboxamide]"
3,50 to 90,"Cn1cc(-c2nc(C(=O)NS(=O)(=O)c3ccc(N4CCN(CC5=C(c6ccc(Cl)cc6)CC(C)(C)CC5)CC4)cc3)ccc2F)ccc1=O [Example 58, N-[4-[4-[[2-(4-Chlorophenyl)-4,4-dimethylcyclohexen-1-yl]methyl]piperazin-1-yl]phenyl]sulfonyl-3-fluoro-1′-methyl-6′-oxo-1′,6′-dihydro-[2,3′-bipyridine]-6-carboxamide]"
4,50 to 90,"CC1(C)CCC(CN2CCN(c3ccc(S(=O)(=O)NC(=O)c4ccc(F)c(-c5cn[nH]c5)n4)cc3)CC2)=C(c2ccc(Cl)cc2)C1 [Example 59, N-[4-[4-[[2-(4-Chlorophenyl)-4,4-dimethylcyclohexen-1-yl]methyl]piperazin-1-yl]phenyl]sulfonyl-5-fluoro-6-(1H-pyrazol-4-yl)pyridine-2-carboxamide]"
5,< 50,"CC1(C)CCC(CN2CCN(c3ccc(S(=O)(=O)NC(=O)c4ccc(F)c(-c5ccncc5)n4)cc3)CC2)=C(c2ccc(Cl)cc2)C1 [Example 61, N-[4-[4-[[2-(4-chlorophenyl)-4,4-dimethyl-cyclohexen-1-yl]methyl]piperazin-1-yl]phenyl]sulfonyl-5-fluoro-6-(4-pyridyl)pyridine-2-carboxamide]"

# Second part, the molecule before the results:
row,SMILES,inhibition at 1 µM [%]
1,"CNc1c([N+](=O)[O-])cc(C(=O)NS(=O)(=O)c2ccc(N3CCN(CC4=C(c5ccc(Cl)cc5)CC(C)(C)CC4)CC3)cc2)c(Cl)c1C [Example 54, 2-chloro-N-[4-[4-[[2-(4-chlorophenyl)-4,4-dimethylcyclohexen-1-yl]methyl]piperazin-1-yl]phenyl]sulfonyl-4-(methylamino)-3-methyl-5-nitrobenzamide]",50 to 90
2,"Cn1ccc(-c2nc(C(=O)NS(=O)(=O)c3ccc(N4CCN(CC5=C(c6ccc(Cl)cc6)CC(C)(C)CC5)CC4)cc3)ccc2F)cc1=O [Example 56, N-[4-[4-[[2-(4-Chlorophenyl)-4,4-dimethylcyclohexen-1-yl]methyl]piperazin-1-yl]phenyl]sulfonyl-3-fluoro-1′-methyl-2′-oxo-1′,2′-dihydro-[2,4′-bipyridine]-6-carboxamide]",50 to 90
3,"Cn1ncc2ccc(-c3nc(C(=O)NS(=O)(=O)c4ccc(N5CCN(CC6=C(c7ccc(Cl)cc7)CC(C)(C)CC6)CC5)cc4)ccc3F)cc21 [Example 60, N-[4-[4-[[2-(4-Chlorophenyl)-4,4-dimethylcyclohexen-1-yl]methyl]piperazin-1-yl]phenyl]sulfonyl-5-fluoro-6-(1-methyl-1H-indazol-6-yl)pyridine-2-carboxamide]",50 to 90

# Same assay, conditions: 10-concentration IC50 mode, 4 nM BCL-2 recombinant protein, 100 nM FAM-Bak, read-out: potency (IC50)
row,IC50 [µM],SMILES
1,0.1 to 1,"COc1cc(-c2nc(C(=O)NS(=O)(=O)c3ccc(N4CCN(CC5=C(c6ccc(Cl)cc6)CC(C)(C)CC5)CC4)cc3Oc3cnc4[nH]ccc4c3)ccc2F)ccn1 [Example 62, N-[4-[4-[[2-(4-Chlorophenyl)-4,4-dimethylcyclohexen-1-yl]methyl]piperazin-1-yl]-2-(1H-pyrrolo[2,3-b]pyridin-5-yloxy)phenyl]sulfonyl-5-fluoro-6-(2-methoxypyridin-4-yl)pyridine-2-carboxamide]"
